In patent publication US11452714B2, “Antibacterial agents including histidine kinase inhibitors” (Regents of the University of Minnesota, priority 2017, dated 2022):
Read-outs that look alike come from different tables or passages of the source.

How the values were obtained:
histidine kinase HK853 [1] = molecular target: T1, histidine kinase HK853 (Thermotoga maritima, UniProt Q9WZV7); assay: biochemical
T1 sequence (Q9WZV7 232-489): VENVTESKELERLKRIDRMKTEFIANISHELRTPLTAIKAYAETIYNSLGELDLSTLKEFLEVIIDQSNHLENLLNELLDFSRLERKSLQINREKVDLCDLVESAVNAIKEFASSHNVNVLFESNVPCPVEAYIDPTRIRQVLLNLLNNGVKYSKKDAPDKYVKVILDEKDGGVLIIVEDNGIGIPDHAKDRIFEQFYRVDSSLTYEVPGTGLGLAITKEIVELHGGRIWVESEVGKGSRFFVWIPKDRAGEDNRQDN
Experimental: (§1) Triton X-100 was premixed with reaction buffer to yield 0.1% (v/v) in final 25-μL reactions. Samples were mixed and incubated in the dark at RT for 1 h before quenching with 8.6 μL 2×SDS-PAGE sample loading buffer and loading 10 μL on a 10%0/stacking gel. After SDS-PAGE, in-gel fluorescence detection elucidated HK853 activity, and silver staining of the gels ensured even protein loading. Integrated density values of the fluorescent gel bands were normalized as “% Activity” with respect to a control that contained no inhibitor. Data were plotted in GraphPad Prism (available from GraphPad Software, San Diego, Calif.) with relation to the log of molar inhibitor to determine IC50 values, using EQUATION 1.

histidine kinase HK853 [2] = molecular target: T1, histidine kinase HK853; settings: for inhibition of HK853: non-native bases or nucleosides, in words
Experimental: as §1

HK853 = molecular target: T2, HK853 (Thermotoga maritima, UniProt Q9WZV7); settings: for inhibition of HKs: in words; for IC50 values (95% confidence interval), n = 2: riluzole analogs, second TABLE 3, 0.1% Triton X-100
T2 sequence (Q9WZV7 232-489): T1 sequence (Q9WZV7 232-489)
Experimental: Triton X-100 was premixed with reaction buffer to yield 0.1% (v/v) in final 25-μL reactions. […] Samples were mixed and incubated in the dark at RT for 1 h before quenching with 8.6 μL 4×SDS-PAGE sample loading buffer and loading 15 μL on a 10% stacking gel. After SDS-PAGE, in-gel fluorescence detection elucidated HK853 activity, and coomassie staining of the gels ensured even protein loading. Integrated density values of the fluorescent gel bands were normalized as “% Activity” with respect to a control that contained no inhibitor.

[3] = IC50, sulfonyl fluoride side chains, Example 4
[4] = purine derivatives, TABLE 2, N/I = no inhibition
[5] = IC50, purine derivatives, TABLE 2, N/I = no inhibition
[6] = phenyl-adenine derivatives, first TABLE 3, N/I = no inhibition
[7] = adenine derivatives, TABLE 1, N/I = no inhibition was observed

Question: `Nc1ncnc2c1ncn2C1OC(COC(=O)c2ccccc2)C(O)C1O` (stereo not drawn) was tested. Which IC50 (histidine kinase HK853 [1]) did it give?
Answer: Its IC50 is 192 µM.

Question: Which IC50 (histidine kinase HK853 [1]; [3]) does the source give for `Nc1ncnc2c1ncn2C1OC(COC(=O)c2ccc(S(=O)(=O)F)cc2)C(O)C1O` (stereo not drawn) [6-O-benzoyl adenosine, R=SO2F] here?
Answer: The IC50 was 5.3 µM.

Question: How did the IC50 (histidine kinase HK853 [2]; [4]) turn out when `OCC1OC(n2cnc3c(Cl)ncnc32)C(O)C1O` (stereo not drawn) [CW19] was run?
Answer: The IC50 was “N/I”.

Question: For `Nc1nc(Cl)c2nc[nH]c2n1` [CW20], which IC50 (histidine kinase HK853 [2]; [4]) is on record?
Answer: Its IC50 is 118 µM.

Question: With `Nc1nc(Cl)nc2[nH]cnc12` [CW22] as the compound, how does the IC50 (histidine kinase HK853 [2]; [4]) read?
Answer: Its IC50 is 156 µM.

Question: How did the IC50 (histidine kinase HK853 [2]; [4]) turn out when `Nc1nc(F)nc2[nH]cnc12` [CW24] was run?
Answer: Its IC50 is 310 µM.

Question: `Nc1nc(F)nc2c1ncn2C1OC(CO)C(O)C1O` (stereo not drawn) [CW25] was tested. Which IC50 (histidine kinase HK853 [1]; [5]) did it give?
Answer: Its IC50 is 218 µM.

Question: For `Cn1cnc2c(N)ncnc21` [CW29], which IC50 (histidine kinase HK853 [1]; [5]) is on record?
Answer: Its IC50 is 150 µM.

Question: For `Cn1cnc2ncnc(N)c21` [CW30], which IC50 (histidine kinase HK853 [2]; [4]) is on record?
Answer: The IC50 was “N/I”.

Question: How did the IC50 (histidine kinase HK853 [2]; [6]) turn out when `OCC1OC(n2cnc3c(Nc4ccccc4)ncnc32)C(O)C1O` (stereo not drawn) [CW35] was run?
Answer: The IC50 was “N/I”.

Question: Which IC50 (histidine kinase HK853 [2]; [6]) does the source give for `Clc1nc(Nc2ccccc2)c2nc[nH]c2n1` [CW36] here?
Answer: Its IC50 is “N/I”.

Question: For `Clc1ccc(Nc2ncnc3[nH]cnc23)cc1` [CW37], which IC50 (histidine kinase HK853 [1]) is on record?
Answer: Its IC50 is 1700 µM.

Question: `Fc1ccc(Nc2ncnc3[nH]cnc23)cc1` [CW38] was tested. Which IC50 (histidine kinase HK853 [1]) did it give?
Answer: Its IC50 is 1900 µM.

Question: How did the IC50 (histidine kinase HK853 [1]) turn out when `Nc1ncnc2c1ncn2C1OC(CO)C(O)C1O` (stereo not drawn) [Compound C12] was run?
Answer: The IC50 was 445 µM.

Question: How did the IC50 (histidine kinase HK853 [1]; IC50, adenine derivatives, TABLE 1, N/I = no inhibition was observed) turn out when `Cn1cnc2c(N)ncnc21` [Compound C13] was run?
Answer: Its IC50 is 145 µM.

Question: For `c1ccc(Nc2ncnc3nc[nH]c23)cc1` [Compound C15], which IC50 (histidine kinase HK853 [1]) is on record?
Answer: Its IC50 is 7.6 µM.

Question: Which IC50 (histidine kinase HK853 [2]; [7]) does the source give for `OCC1OC(n2cnc3c(Cl)ncnc32)C(O)C1O` (stereo not drawn) [Compound C18] here?
Answer: The IC50 was “N/I”.

Question: For `CCCN(CCC)c1ncnc2c1ncn2C1OC(CO)C(O)C1O` (stereo not drawn) [Compound C19], which IC50 (histidine kinase HK853 [1]) is on record?
Answer: The IC50 was 1100 µM.

Question: With `Cn1cnc2ncnc(N)c21` [Compound C26] as the compound, how does the IC50 (histidine kinase HK853 [2]; [7]) read?
Answer: Its IC50 is “N/I”.

Question: `Nc1nc2nc[nH]c2c(=O)[nH]1` [Guanine, reference compound] was tested. Which “inhibition of HK853” value (histidine kinase HK853 [2]) did it give?
Answer: Its value is “did not appear to inhibit HK853”.

Question: For `Nc1nc2c(ncn2[C@@H]2O[C@H](CO)[C@@H](O)[C@H]2O)c(=O)[nH]1` [Guanosine, reference compound], which “inhibition of HK853” value (histidine kinase HK853 [2]) is on record?
Answer: The value was “did not appear to inhibit HK853”.

Question: For `OC[C@H]1O[C@@H](n2cnc3c(O)ncnc32)[C@H](O)[C@@H]1O` [Inosine, reference compound], which “inhibition of HK853” value (histidine kinase HK853 [2]) is on record?
Answer: Its value is “did not appear to inhibit HK853”.

Question: How did the “inhibition of HKs” value (HK853) turn out when `Nc1nc2c(Cl)cc(Cl)cc2s1` [Rilu-10] was run?
Answer: The value was “did not significantly inhibit HKs”.

Question: What about the “IC50 values (95% confidence interval), n = 2” value (HK853) of the same compound?
Answer: Its value is “No Inhibition”.

Question: What does the source list for `Nc1nc2cc(Br)c(Br)cc2s1` [Rilu-11]?
Answer: inhibition of HKs (HK853): did not significantly inhibit HKs; IC50 values (95% confidence interval), n = 2 (HK853): No Inhibition

Question: With `Nc1nc2ccc(NCc3ccc(S(=O)(=O)F)cc3)cc2s1` [riluzole analog with benzyl SO2F] as the compound, how does the IC50 (histidine kinase HK853 [1]; [3]) read?
Answer: The IC50 was 2.1 µM.
